According to patent publication US7230028B2, “Dimeric compounds and their use as anti-viral agents” (priority 2001, dated 2007):
Values after ≈ are worked out from the molar mass of the structure shown.

What was measured:
[1] = system: B/Hong Kong/5/72 BVLV012; experiment: Plaque reduction assay (PRA) in MDCK cells; format: cell-based, influenza B; details: Influenza B virus, MDCK, read-out: EC50 PRA B/HongK
Experimental: (§1) Madin Darby Canine Kidney (MDCK) cells are seeded into six well tissue culture plates and grown to confluency via standard methods. Influenza viruses are diluted in a minimal volume of phosphate buffered saline supplemented with 0.2% bovine serum albumin to yield an estimated titre of 50–100 plaque forming units (pfu) per well. After adsorption to the MDCK cells for one hour at 37° C. in a 5% CO2 atmosphere the viral inocula is aspirated and replaced with viral growth media (minimal Eagle's media supplemented with BSA, trypsin and insulin/transferrin/selenium at optimal concentrations) containing sufficient agar or agarose (generally 1–2%) to cause the media to gel at room temperature and at 37° C. in a 5% CO2 atmosphere until plaques develop (generally 2–4 days). Plaques can be visualised with a suitable stain (e.g. 0.4% crystal violet in formal saline) before counting.

[2] = system: A/Victoria/3/75 BVLV017 (H3N2); experiment: Plaque reduction assay (PRA) in MDCK cells; format: cell-based; details: Influenza A virus, H3N2, MDCK, read-out: EC50 PRA A/Vic, plaque reduction, A/Victoria/3/75 (H3N2)
[3] = Rat lung retention assay (intra-tracheal dosing); format: in vivo; details: rat, in vivo, 0.1 mg/kg
Experimental: Rodents are anaesthetised and dosed with compound of interest by the intra-tracheal route at a dose volume of 0.8 ml/kg. The rodent is then held in the vertical position until full recovery is achieved. […] Any analytical method suitable for detection of this type of compound may be used. The time at which levels of compound fall below the sensitivity of the analytical techniques identified will determine the residency time of the compound in lung tissue.
Please note that all experiments included a co-dosed internal standard, namely compound 3 of International Patent Publication No. WO 02/20514, to permit comparison. The data are expressed as a ratio with respect to this compound, the structure of which is shown below.

[4] = system: A/Panama/2007/99 BVLV008 (H3N2); experiment: Plaque reduction assay (PRA) in MDCK cells; format: cell-based
[5] = system: A/Sydney/5/97 BVLV015 (H3N2); experiment: Plaque reduction assay (PRA) in MDCK cells; format: cell-based, influenza A H3N2; details: Influenza A virus, MDCK, A/Sydney/5/97 (H3N2), read-out: EC50 PRA A/Syd
Experimental: as §1

[6] = system: B/Harbin/7/95 BVLV008; experiment: Plaque reduction assay (PRA) in MDCK cells; format: cell-based; details: Influenza B virus, read-out: EC50 PRA B/Harb
Experimental: as §1

[7] = system: A/WSN/33 BVLV09 (H1N1); experiment: Plaque reduction assay (PRA) in MDCK cells; format: cell-based, influenza A H1N1; details: A/WSN/33 (H1N1)
Experimental: as §1

[8] = system: A/Bayern/7/95 BVL006 (H1N1); experiment: Plaque reduction assay (PRA) in MDCK cells; format: cell-based, influenza A H1N1; details: Influenza A virus, MDCK, A/Bayern/7/95 (H1N1), read-out: EC50 PRA A/Bay
Experimental: as §1

[9] = system: A/New Caledonia/20/99 BVLV008 (H1N1); experiment: Plaque reduction assay (PRA) in MDCK cells; format: cell-based

CC(=O)N[C@H]1[C@H]([C@H](O)[C@H](O)CO)OC(C(=O)O)=C[C@@H]1NC(=N)N [Compound A, 4-guanidino-2-deoxy-2,3-dehydro-N-acetylneuraminic acid]
EC50 [1]: 21 ng/mL (≈ 63.2 nM)
EC50 [2]: 5.5 ng/mL (≈ 16.6 nM)
Ratio Mean (lung) (cmpd)/PCT AU01/01128 compound 3 ([3]; 48 h): 0.26
Ratio Mean (lung) (cmpd)/PCT AU01/01128 compound 3 ([3]; 168 h): 0.08
EC50 ([4]; Influenza A virus, H3N2, MDCK, read-out: EC50 PRA A/Pan, plaque reduction, A/Panama/2007/99 (H3N2)): 2.7 ng/mL (≈ 8.12 nM)
EC50 PRA A/Pan ([4]; plaque reduction, A/Panama/2007/99 (H3N2)): 3 ng/mL (≈ 9.03 nM)
EC50 [5]: 2.4 ng/mL (≈ 7.22 nM)
EC50 [6]: 0.19 ng/mL (≈ 0.572 nM)
EC50 PRA A/WSN [7]: > 100 ng/mL
EC50 ([7]; Influenza A virus, MDCK): 56 ng/mL (≈ 169 nM)
EC50 [8]: 35 ng/mL (≈ 105 nM)
EC50 ([9]; Influenza A virus, H1N1, MDCK, read-out: EC50 PRA A/New, plaque reduction, A/New Caledonia/20/99 (H1N1)): 0.27 ng/mL (≈ 0.812 nM)
EC50 PRA A/New ([9]; plaque reduction, A/New Caledonia/20/99 (H1N1)): 0.23 ng/mL (≈ 0.692 nM)
